This is an account of results in patent US5214204A, “Arylamidoalkyl-N-hydroxyurea compounds having lipoxygenase inhibitory activity” (Abbott Laboratories, priority 1991, dated 1993).

Assay [1] has as its target T1, 5-Lipoxygenase from HWBL-1 20,000 xg Supernatant (Rattus norvegicus, UniProt P12527).
T1 construct: 20,000 xg supernatant from 1.5 million homogenized HWBL-1 cells; endogenous in cells
T1 sequence (P12527 1-673): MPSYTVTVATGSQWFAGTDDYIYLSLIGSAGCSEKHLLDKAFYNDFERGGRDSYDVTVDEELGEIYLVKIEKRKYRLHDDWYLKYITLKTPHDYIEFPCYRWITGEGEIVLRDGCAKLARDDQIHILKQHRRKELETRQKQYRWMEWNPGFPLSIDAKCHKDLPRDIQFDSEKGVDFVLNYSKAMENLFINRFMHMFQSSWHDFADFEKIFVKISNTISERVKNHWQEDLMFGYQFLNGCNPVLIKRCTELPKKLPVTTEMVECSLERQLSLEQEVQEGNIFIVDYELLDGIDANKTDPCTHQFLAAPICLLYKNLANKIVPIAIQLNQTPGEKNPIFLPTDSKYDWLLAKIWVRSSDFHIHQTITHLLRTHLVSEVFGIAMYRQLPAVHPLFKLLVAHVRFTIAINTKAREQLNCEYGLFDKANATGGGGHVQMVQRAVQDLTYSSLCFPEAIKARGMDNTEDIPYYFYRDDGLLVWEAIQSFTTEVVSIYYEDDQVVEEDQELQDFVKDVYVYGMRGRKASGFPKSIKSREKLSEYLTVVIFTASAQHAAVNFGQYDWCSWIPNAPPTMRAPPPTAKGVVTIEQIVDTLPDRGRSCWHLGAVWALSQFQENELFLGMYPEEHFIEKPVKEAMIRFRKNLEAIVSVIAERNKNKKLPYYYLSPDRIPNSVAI
The assay is described as follows: 5-lipoxygenase inhibition, 20,000 xg supernatant of homogenized HWBL-1 cells, radiolabeled arachidonic acid. Type of assay: biochemical. As to conditions: read-out: IC50 (in vitro inhibitory potency against 5-lipoxygenase). How it is done: Assays to determine 5-lipoxygenase inhibitory activity of representative compounds of the present invention were performed in […] incubations containing the 20,000 xg supernatant from 1.5 million homogenized HWBL-1 cells and various concentrations of the test compound. Reactions were initiated by addition of radiolabeled arachidonic acid and terminated by acidification and ether extraction. Reaction products were separated from nonconverted substrate by thin layer chromatography and measured by liquid scintillation spectroscopy. All incubations are performed in triplicate. Inhibition of 5-lipoxygenase activity was calculated as the ratio of the amount of product formed in the presence and absence of inhibitor. IC50 values (concentration of compound producing 50% enzyme inhibition) were calculated by linear regression analysis of percentage inhibition versus log inhibitor concentration plots. (Dyer, R. D.; Haviv, F.; Hanel, A. M.; Bornemier, D. A.; Carter, G. W. Fed. Proc., Fed. Am. Soc. Exp. Biol. 1984, 43, 1462A).
In Vitro Inhibitory Potencies of Compounds of this Invention
Against 5-Lipoxygenase from HWBL-1 20,000 xg Supernatant

A further assay relates to Leukotrienes. Kind of assay: inhibition of leukotriene biosynthesis in vivo, rat peritoneal anaphylaxis model, oral. As to conditions: oral gavage, 1 h before antigen challenge; for inhibition in vivo at 100 µmol/kg: 100 μmol/kg, read-out: % Inhibition of Leukotrienes, Oral Dose at 100 μmol/kg; for inhibition in vivo at 30 µmol/kg: read-out: % Inhibition of Leukotrienes, Oral Dose at 30 μmol/kg. How it is done:
Inhibition of the biosynthesis of leuktrienes in vivo after oral administration of compound was determined using a rat peritoneal anaphylaxis model in a similar manner as that described by Young and coworkers (Young, P. R.; Dyer, R. D.; Carter, G. W. Fed. Proc., Fed. Am. Soc. Exp. Biol. 1985, 44, 1185). In this model rats were injected intraperitoneally (ip) with rabbit antibody to bovine serum albumin (BSA) and three hours later injected ip with BSA to induce an antgen-antibody response. Rats were sacrificed 15 minutes after this challenge and the peritoneal fluids were collected and analyzed for leukotriene levels. Test compounds were administered by gavage one hour prior to the antigen challenge. Percent inhibition values were determined by comparing the treatment group to the mean of the control group.

Usually IC50 stands for the concentration at which inhibition is half-maximal. In the case of `NC(=O)N(O)CCNC(=O)c1cccc(Oc2ccccc2)c1` [Example 2], the IC50 in assay [1] was found to be 230 nM. For the same compound, the inhibition in vivo at 100 µmol/kg in the assay on Leukotrienes was 84%. In the same order, the values of `CCCCOc1cccc(C(=O)NCCN(O)C(N)=O)c1` [Example 19] are 260 nM and 63%. The matching figures for `NC(=O)N(O)CCCNC(=O)c1cccc(Oc2ccccc2)c1` [Example 21]: 70 nM and 95%. `CNC(=O)N(O)CCCNC(=O)c1cccc(Oc2ccccc2)c1` [Example 23, N-Hydroxy-N'-methyl-N-[3-((3-phenoxybenzoyl)amino)propyl]urea]: the inhibition in vivo at 30 µmol/kg with Leukotrienes (30 μmol/kg) stood at 57%. For `NC(=O)N(O)CCNC(=O)c1cccc(Oc2ccc(Cl)cc2)c1` [Example 26, N-Hydroxy-N-[2-((3-(4-chlorophenoxy)benzoyl)amino)ethyl]urea], in assay [1], the half-maximal inhibitory concentration (IC50) turned out to be 160 nM. Besides, the inhibition in vivo at 100 µmol/kg with Leukotrienes was 99%. As to `C[C@H](CN(O)C(N)=O)NC(=O)c1cccc(Oc2ccccc2)c1` [Example 32, (R)-N-Hydroxy-N-[2-((3-phenoxybenzoyl)amino)propyl]urea], the IC50 in assay [1] was determined as 210 nM. The inhibition in vivo at 100 µmol/kg in the assay with Leukotrienes worked out at 90%. `NC(=O)N(O)CCNC(=O)c1cccc(OCc2ccccc2)c1` [Example 35, N-Hydroxy-N-[2-((3-phenylmethyloxybenzoyl)amino)ethyl]urea]: the IC50 in assay [1] was 220 nM. In the assay on Leukotrienes, the inhibition in vivo at 100 µmol/kg was 15%. Regarding `NC(=O)N(O)CCNC(=O)c1ccc(Oc2ccccc2)o1` [Example 36, N-Hydroxy-N-[2-((5-phenoxyfuran-2-oyl)amino)ethyl]urea], the IC50 in assay [1] came out at 130 nM. Also, the inhibition in vivo at 30 µmol/kg in the assay with Leukotrienes (30 μmol/kg) worked out at 78%.

As for `CN(CCN(O)C(N)=O)Cc1cccc(Oc2ccc(Cl)cc2)c1` [Example 37, N-Hydroxy-N-[2-(N-methyl-((3-(4-chlorophenoxy)phenyl)methyl)amino)ethyl]urea], the IC50 in assay [1] came out at 100 nM. For the same compound, in the assay with Leukotrienes, the inhibition in vivo at 100 µmol/kg turned out to be 80%.

Consider `COc1ccc(Oc2cccc(CN(C)CCN(O)C(N)=O)c2)cc1` [Example 38], for which the IC50 in assay [1] was 200 nM. The inhibition in vivo at 100 µmol/kg with Leukotrienes turned out to be 86%.

Take `CN(CCN(O)C(N)=O)Cc1cccc(Oc2cc(Cl)cc(Cl)c2)c1` [Example 40, N-Hydroxy-N-[2-(N-methyl-((3-(3,5-dichlorophenoxy)phenyl)methyl)amino)ethyl]urea]: in assay [1], the IC50 came out at 150 nM. Further, the inhibition in vivo at 100 µmol/kg in the assay with Leukotrienes came out at 76%. Consider `NC(=O)N(O)CCNC(=O)c1ccccc1Oc1ccccc1` [Example 51, N-Hydroxy-N-[2-((2-phenoxybenzoyl)amino)ethyl]urea], for which the IC50 in assay [1] came to 240 nM. Also, the inhibition in vivo at 30 µmol/kg with Leukotrienes (30 μmol/kg) amounted to 47%. In the same order, the values of `NC(=O)N(O)CCNC(=O)c1ccc(Oc2ccccc2)cc1` [Example 52, N-Hydroxy-N-[2-((4-phenoxybenzoyl)amino)ethyl]urea] are 160 nM and 19%. On to `NC(=O)N(O)CCNC(=O)c1cccc(Oc2ccc(Br)cc2)c1` [Example 53, N-Hydroxy-N-[2-(3-((4-bromophenoxy)benzoyl)amino)ethyl]urea], for which the IC50 in assay [1] was 440 nM. Moreover, the inhibition in vivo at 30 µmol/kg in the assay with Leukotrienes (30 μmol/kg) was 33%. In the same order, the values of `NC(=O)N(O)CCNC(=O)c1cccc(Oc2ccc(F)cc2)c1` [Example 54, N-Hydroxy-N-[2-(3-((4-fluorophenoxy)benzoyl)amino)ethyl]urea] are 150 nM and 11%.

As to `NC(=O)N(O)CCNC(=O)c1cccc(Oc2ccccn2)c1` [Example 55, N-Hydroxy-N-[2-((3-(pyrid-2-yloxy)benzoyl)amino)ethyl]urea], in assay [1], the IC50 is 1000 nM. Further, the inhibition in vivo at 100 µmol/kg with Leukotrienes was found to be 83%.

Turning to `NC(=O)N(O)CCNC(=O)Cc1cccc(Oc2ccccc2)c1` [Example 56, N-Hydroxy-N-[2-((3-phenoxyphenylacetyl)amino)ethyl]urea], the IC50 in assay [1] is 220 nM. In addition, the inhibition in vivo at 100 µmol/kg in the assay on Leukotrienes came to 85%. With `NC(=O)N(O)CCNC(=O)c1ccc(Oc2ccc(Cl)cc2)o1` [Example 58, N-Hydroxy-N-[2-((5-(4-chlorophenoxy)furan-2-oyl)amino)ethyl]urea], the IC50 in assay [1] worked out at 110 nM. The “% Inhibition of Leukotrienes, Oral Dose at 50 μmol/kg” value in the assay on Leukotrienes is given as 81%. With `C[C@@H](CN(O)C(N)=O)NC(=O)c1ccc(Oc2ccc(F)cc2)o1` [Example 60], the IC50 in assay [1] was determined as 280 nM. In addition, in the assay with Leukotrienes, the inhibition in vivo at 100 µmol/kg turned out to be 84%. For the compound `NC(=O)N(O)CCNC(=O)c1ccc(Oc2ccc(F)cc2)o1` [Example 61], the IC50 in assay [1] amounted to 160 nM. The “% Inhibition of Leukotrienes, Oral Dose at 50 μmol/kg” value in the assay on Leukotrienes amounted to 60%. For the compound `NC(=O)N(O)CCNC(=O)c1cc2ccccc2o1` [Example 63, N-Hydroxy-N-[((benzo[b]furan-2-oyl)amino)ethyl]urea], in assay [1], the IC50 stood at 1000 nM. Besides, the inhibition in vivo at 30 µmol/kg with Leukotrienes (30 μmol/kg) turned out to be 52%. On to `NC(=O)N(O)CCNC(=O)COc1ccccc1Oc1ccccc1` [Example 73, N-Hydroxy-N-[2-((2-phenoxyphenoxyacetyl)amino)ethyl]urea], for which, in the assay on Leukotrienes (30 μmol/kg), the inhibition in vivo at 30 µmol/kg amounted to 53%. Consider `CC(C)Cc1ccc(C(C)C(=O)NCCN(O)C(N)=O)cc1` (centres unmarked) [Example 82, N-Hydroxy-N-[2-((2-(4-(2-methylpropyl)phenyl)propionyl)amino)ethyl]urea], for which the IC50 in assay [1] was 5000 nM.

For the compound `NC(=O)N(O)CCNC(=O)Cc1ccccc1Nc1c(Cl)cccc1Cl` [Example 83, N-Hydroxy-N-[2((2-(2.6-dichlorophenylamino)phenylacetyl)amino)ethyl]urea], the IC50 in assay [1] worked out at 440 nM. Same read-out and setting: with `NC(=O)N(O)CCNC(=O)c1csc(-c2ccccc2)n1` [Example 84, N-Hydroxy-N-[2-((2-phenylthiazol-4-oyl)amino)ethyl]urea] the figure was 930 nM. In the case of `CC(CNC(=O)OC(C)(C)C)N(O)C(N)=O` (centres unmarked) [Example 85, (d.l)-N-Hydroxy-N-[3-((tert-butyoxycarbonyl)amino)prop-2-yl]urea], the IC50 in assay [1] is 290 nM. Regarding `CC(Oc1ccccc1C(=O)NCCN(O)C(N)=O)c1ccccc1` (centres unmarked) [Example 87, N-Hydroxy-N-[2-((2-(1-phenylethyloxy)benzoyl)amino)ethyl]urea], the IC50 in assay [1] stood at 370 nM. Besides, the inhibition in vivo at 100 µmol/kg in the assay on Leukotrienes is 60%.

Turning to `CC(CCNC(=O)c1ccc(Oc2ccc(F)cc2)o1)N(O)C(N)=O` (centres unmarked) [Example 88, N-Hydroxy-N-[4-((5-(4-fluorophenoxy)furan-2-oyl)amino)but-2-yl]urea], in assay [1], the IC50 was found to be 280 nM. In addition, the inhibition in vivo at 30 µmol/kg with Leukotrienes (30 μmol/kg) is 84%. Turning to “N-Hydroxy-N-[2-((3-(4-chlorophenylsulfonyl)benzoyl)amino)ethyl]urea [Example 62]”, the IC50 in assay [1] worked out at 910 nM. With “N-Hydroxy-N-[((4-chlorobenzo[b]thien-2-oyl)amino)ethyl]urea [Example 64]”, in assay [1], the IC50 was determined as 2100 nM. Besides, in the assay with Leukotrienes (30 μmol/kg), the “% Inhibition of Leukotrienes, Oral Dose at 30 μmol/kg” value was determined as 92%.
